Patent US12022831B2, “Synergistic weed control from applications of aminopyralid and clopyralid” (Dow AgroSciences LLC, priority 2012, dated 2024)
Structures can show the parent of a compound that is named as a salt.

System: honey mesquite (Prosopis glandulosa), weed bayer PRCJG
Test: Field trial, post-emergence foliar application, synergistic weed control (canopy control and mortality ratings, Colby's equation)
Format: in vivo
Procedure: In some embodiments, the damage or injury to the undesired vegetation caused by the compositions and methods disclosed herein is evaluated using a scale from 0% to 100%, when compared with the untreated control vegetation, wherein 0% indicates no damage to the undesired vegetation and 100% indicates complete destruction of the undesired vegetation.
X=effect in percent using (a) aminopyralid or an agriculturally acceptable salt or ester thereof at an application rate a;
Y=effect in percent using (b) clopyralid or an agriculturally acceptable salt or ester thereof at an application rate b;
E=expected effect (in %) of (a)+(b) at application rates a and b.
In Colby's equation, the value E corresponds to the effect (plant damage or injury) that is to be expected if the activity of the individual compounds is additive. If the observed effect is higher than the value E calculated according to the Colby equation, then a synergistic effect is present according to the Colby equation.
Field trials were conducted with applications made to established grassland with naturally occurring weed populations. The target plants were treated with postemergence foliar applications when they reached two to five feet tall. All treatments were applied using a nonrandomized trial design, with three replications per treatment.
[…] Spray solutions were prepared using an appropriate amount of dilution to form a 2 L aqueous spray solution with active ingredients in single and two way combinations. […] The treated plants were honey mesquite (Prosopis glandulosa). The treated plots and control plots were rated blind at various intervals after application. Ratings were based on a scale of 0-100%, wherein 0% indicates no damage to the canopy of the undesired vegetation and 100% indicates complete destruction of the canopy of undesired vegetation. Dead and live plants were counted and the mortality was calculated as a % of the total number of undesired plants per plot.
Colby's equation was used to determine the herbicidal effects expected from the mixtures, as described above. […] The herbicide tank mix combinations tested, application rates and ratios employed, plant species tested, and results are given below.

Compound | Mean % weed mortality; Evaluation: % Canopy Control (Clopyralid MEA Salt alone 560 gae/ha, 82 days after treatment) | Mean % weed mortality; Evaluation: % Mortality (Clopyralid MEA Salt alone 560 gae/ha, 385 days after treatment) | Mean % weed mortality; Evaluation: % Mortality (Clopyralid MEA Salt alone 560 gae/ha, 386 days after treatment) | Mean % weed mortality; Evaluation: % Canopy Control (Aminopyralid TIPA Salt alone 280 gae/ha, 81 days after treatment) | Mean % weed mortality; Evaluation: % Canopy Control (Aminopyralid TIPA Salt alone 280 gae/ha, 82 days after treatment) | Mean % weed mortality; Evaluation: % Mortality (Aminopyralid TIPA Salt alone 280 gae/ha, 385 days after treatment) | Mean % weed mortality; Evaluation: % Mortality (Aminopyralid TIPA Salt alone 280 gae/ha, 386 days after treatment)
O=C(O)c1nc(Cl)ccc1Cl [Clopyralid MEA Salt, 3,6-dichloro-2-pyridinecarboxylic acid] | 25.0% | 25% | 7% |  |  |  | 
Nc1cc(Cl)nc(C(=O)O)c1Cl [Aminopyralid TIPA Salt, 4-amino-3,6-dichloro-2-pyridinecarboxylic acid] |  |  |  | 22.0% | 10.0% | 0% | 14%
